Test results published in patent publication US20240050414A1, “A COMPOSITION FOR USE IN THE TREATMENT OF INFERTILITY” (priority 2020, published 2024).

How the values were obtained:
rats [1] = settings: 2 g/kg; cited from earlier work
sperm = experiment: CASA sperm motility assessment; assay type: cell-based, human; settings: for maintaining percentage of motile and progressive sperm and VAP: 24 and 48 hour
Description: FIG. 1 illustrates the evaluation of the cytoprotective and antioxidant compound ergothionine for ability to preserve sperm motility and progression, wherein sperm were separated from seminal fluid by density gradient centrifugation, washed in sperm wash media, and incubated in multipurpose handling medium for 48 hours in the presence of antioxidant, wherein path velocity (A) and sperm motility (B) were quantified by CASA, wherein for statistical analysis the log ratio to control was used as the dependent variable in ONEWAY ANOVA with posthoc testing by Dunnet's test (comparisons against a single ‘control’ value only), wherein N>12 per group;
FIG. 4 illustrates ergothionine effectively maintains sperm motility and progression, wherein sperm were separated from seminal fluid by density gradient centrifugation, washed in sperm wash media and incubated in multipurpose handling medium in the presence of ergothionine at 1 mM for 24 hours (A-C) or 48 hours (D-F) or in the presence of ergothionine at 0.1 mM for 24 hours (G-I) or 48 hours (J-L), wherein sperm motility was analysed using CASA, wherein statistical analysis was performed using the Wilcoxon signed-rank, wherein N=26 per group for ergothionine at 1 mM and N=10 per group for 0.1 mM ergothionine;
FIG. 8 illustrates a head-to-head comparison of the effect of a commercially available composition and the composition on sperm motility, wherein sperm were separated from seminal fluid by density gradient centrifugation, washed in sperm wash media and incubated in multipurpose handling medium in the presence of the commercially available composition (A,B) and the composition (C,D) for a period of 30 minutes, wherein sperm motility was analysed using CASA, wherein statistical analysis was performed using the Wilcoxon signed-rank test, wherein N=6 per group; and
Sperm motility assessments were carried out by Computer Assisted Sperm Analysis (CASA) using the Hamilton Thorne software and a Zeiss microscope, following WHO and manufacturers' guidelines. Briefly, semen samples were resuspended using Pasteur pipettes and diluted 1 in 3 in sperm wash media (Irvine Scientific, 9983). […] Motility assessment was evaluated by capturing at least 1000 sperm cell tracks per slide for unprocessed samples and 300 for processed samples. Total cell count (×10e6/ml), percentage immotile (IM), non-progressively motile (NP) and progressively motile (PR) sperm and average path velocity (VAP) for M and PM sperm was recorded for each sample as defined by World Health Organisation (WHO) laboratory manual for the examination and processing of human semen (fifth edition, 2010). […]

sheep oocytes = settings: cited from earlier work
embryo development = settings: 0.1 mM; cited from earlier work
[2] = test system: bovine embryo development; settings: cited from earlier work
rats [3] = settings: fed 0.9% of diet for 13 weeks; cited from earlier work
[4] = cited from earlier work
[5] = test system: mouse oocytes with mouse sperm; experiment: In vitro fertilisation and embryo development to blastocyst; assay type: cell-based; settings: Example 6, control PBS
Description: To evaluate this, in vitro fertilisation studies were performed in the presence of the composition at a concentration of 10% and subsequent embryo development examined to blastocyst stage (see FIG. 7).

8-OH-G on sperm DNA = experiment: Flow cytometric assay of oxidative DNA damage (8-OHG) on sperm DNA; assay type: cell-based, human
Description: FIG. 3 illustrates evaluating the effect of ergothionine on sperm oxidative DNA damage, wherein sperm were separated from seminal fluid by density gradient centrifugation, washed in sperm wash media, and incubated in multipurpose handling medium for 48 hours in the presence of the cytoprotective and antioxidant compound ergothionine, wherein sperm were fixed in 4% PFA and stained with FITC labelled 8-OHG antibody (2 μg/ml) for 60 mins, washed and analysed by flow cytometry, wherein data were analyzed using FlowJo software and the mean fluorescent intensity (MFI) plotted, wherein statistical analysis was performed using the Wilcoxon signed-rank test, wherein N=6 per group;
A total of 1×10e6 washed semen samples were fixed by re-suspending the washed sperm cell pellet in 500 μl of 4% paraformaldehyde (Chem Cruz, 281692), pH 7.2 and incubating for 20-30 minutes at RT. Fixed spermatozoa were centrifuged at 2,500×g for 1.5 minutes and washed twice in 500 μl 1% NGS-PBS buffer.
Measurement of oxidative DNA damage was determined using anti-DNA/RNA [15A3] […]
ROS and DNA damage are the most significant contributors to male infertility. […] In measuring this parameter, a flow cytometric assay was developed that could quantify the amount of 8-hydroxyguanine (8-OH-G) in the DNA of individual sperm by the use of a specific fluorescently-labelled monoclonal antibody (see FIG. 2).

Compound: C[N+](C)(C)[C@@H](Cc1c[nH]c(=S)[nH]1)C(=O)[O-] [ergothionine]
- adverse effects in rats (rats [1]): no adverse effects observed
- effects on sperm motility and average path velocity (VAP) (sperm; 48 hours in multipurpose handling medium, FIG. 1): sperm protective properties
- maintaining percentage of motile and progressive sperm and VAP (sperm; ergothionine 0.1 mM, p values 0.04 for all parameters): effective at maintaining the percentage of motile and progressive sperm in addition to the speed of the movement (VAP)
- maintaining percentage of motile and progressive sperm and VAP (sperm; ergothionine 1 mM, p values 0.002 for all parameters): effective at maintaining the percentage of motile and progressive sperm in addition to the speed of the movement (VAP)
- toxicity / effect on sperm motility and progression (sperm; ergothionine 1 mM, 48 hour): effective and non-toxic, with no negative effect on sperm motility and progression
- concentrations beneficial for in vitro maturation of sheep oocytes (sheep oocytes): up to 10 mM
- safety for embryo development (embryo development): safe for embryo development
- concentrations beneficial for bovine embryo development [2]: up to 0.1 mM
- concentrations that negatively affect bovine embryo development [2]: > 0.5 mM
- impact on fertility in rats (rats [3]): no negative impact on fertility
- water solubility [4]: water soluble
- effectiveness of exposed sperm in fertilisation versus PBS [5]: more effective that those exposed to PBS
- protection against 8-OH-G formation on sperm DNA (8-OH-G on sperm DNA; ergothionine 0.1 mM, 48 hour, FIG. 3a): ability to protect against 8-OH-G formation on sperm DNA
- cytoprotective effect against 8-OH-G formation (dose dependence) (8-OH-G on sperm DNA; ergothionine 1 mM vs 0.1 mM, 48 hours, FIG. 3b): even greater cytoprotective effect
